In US11453672B2, “Substituted pyrazolo[1,5-a]pyrimidines as tropomyosin receptor kinase inhibitors” (SHENZHEN TARGETRX, INC., priority 2017, dated 2022) one finds microsomal CLint and half-life data, which are given here for five compounds.

The nature of series [1]: Metabolic stability evaluation, rat liver microsomes. In kind it is in vitro ADME. Conditions: SD, pH 7.4, 1 μM compound, 0.5 mg/mL protein, 37° C.; for microsomal CLint at 1 μM: read-out: rat liver microsome CLint; for half-life at 1 μM: read-out: rat liver microsome t1/2. The procedure: (§1) Microsomal experiments: human liver microsomes: 0.5 mg/mL, Xenotech; rat liver microsomes: 0.5 mg/mL, Xenotech; coenzyme (NADPH/NADH): 1 mM, Sigma Life Science; magnesium chloride: 5 mM, 100 mM phosphate buffer agent (pH 7.4).
(§2) Preparation of the stock solution: A certain amount of the powder of the example compounds was accurately weighed and dissolved to 5 mM with DMSO.
(§3) Preparation of phosphate buffer (100 mM, pH 7.4): 150 mL of pre-prepared 0.5 M potassium dihydrogen phosphate solution was mixed with 700 mL of pre-prepared 0.5 M dipotassium hydrogen phosphate solution, and the pH of the mixture was adjusted with 0.5 M dipotassium hydrogen phosphate solution to 7.4. It was diluted 5 times with ultrapure water before use, and magnesium chloride was added to obtain a phosphate buffer (100 mM) containing 100 mM potassium phosphate, 3.3 mM magnesium chloride, and a pH of 7.4.
(§4) A solution of NADPH regeneration system (containing 6.5 mM NADP, 16.5 mM G-6-P, 3 U/mL G-6-P D, 3.3 mM magnesium chloride) was prepared and placed on wet ice before use.
(§5) Preparation of stop solution: acetonitrile solution containing 50 ng/mL propranolol hydrochloride and 200 ng/mL tolbutamide (internal standard). 25057.5 μL of phosphate buffer (pH 7.4) was taken into a 50 mL centrifuge tube, 812.5 μL of human liver microsomes was added, and mixed uniformly to obtain a liver microsome dilution with a protein concentration of 0.625 mg/mL. 25057.5 μL of phosphate buffer (pH 7.4) was taken into a 50 mL centrifuge tube, and 812.5 μL of SD rat liver microsomes was added, and mixed uniformly to obtain a liver microsome dilution with a protein concentration of 0.625 mg/mL.
(§6) Incubation of the sample: The stock solutions of the corresponding compounds were diluted to 0.25 mM as working solutions with an aqueous solution containing 70% acetonitrile before use. 398 μL of human liver microsomes or rat liver microsome dilutions were added to 96-well incubation plates (N=2), and 2 μL of 0.25 mM working solutions were added and mixed uniformly, respectively.
(§7) Determination of metabolic stability: 300 μL of pre-cooled stop solution was added to each well of a 96-well deep well plate, which was placed on ice as a stop plate. The 96-well incubation plate and the NADPH regeneration system were placed in a 37° C. water bath, shaken at 100 rpm, and pre-incubated for 5 min. 80 μL of the incubation solution was removed from each well of the incubation plate, added to the stop plate, and mixed uniformly, and 20 μL of the NADPH regeneration system solution was supplemented as a sample at 0 min. Then, 80 μL of the NADPH regeneration system solution was added to each well of the incubation plate to start the reaction and the timing was started. […] 100 μL of the reaction solution was removed at 10, 30, and 90 min of the reaction, respectively, and added to the stop plate, and the reaction was terminated by vortexing for 3 min. The stop plate was centrifuged at 5000×g for 10 min at 4° C. 100 μL of the supernatant was removed into a 96-well plate to which 100 μL of distilled water was previously added, mixed uniformly, and sample analysis was performed by LC-MS/MS.
(§8) Data analysis: The peak areas of the corresponding compounds and the internal standard were detected by LC-MS/MS system, and the ratios of the peak areas of the compounds to the internal standard were calculated.

Series [2] can be described thus: Metabolic stability evaluation, human liver microsomes. The conditions noted are these: pH 7.4, 1 μM compound, 0.5 mg/mL protein, 37° C.; for microsomal CLint at 1 μM: read-out: human liver microsome CLint; for half-life at 1 μM: read-out: human liver microsome t1/2. In kind it is in vitro ADME. The method, then: as §1, §2, §3, §4, §5, §6, §7, §8
For orientation: Liver microsomes are vesicles of endoplasmic reticulum, rich in cytochrome P450 enzymes.

For `[2H]C1([2H])C[C@H](O)C([2H])([2H])N1C(=O)Nc1cnn2ccc(N3CCC([2H])([2H])C3([2H])c3cc(F)ccc3F)nc12` (stereo in doubt) [Compound L-3, (S)—N-(5-((R)-2-(2,5-difluorophenyl)pyrrolidin-1-yl-2,3,3-d3)-pyrazolo[1,5-a]pyrimidin-3-yl)-3-hydroxypyrrolidine-2,2,5,5-d4-1-carboxamide], in series [1], the microsomal CLint at 1 μM amounted to 16.8 µL/min/mg and the half-life at 1 μM came out at 1.38 h. In addition, in series [2], the microsomal CLint at 1 μM stood at 19.1 µL/min/mg and the half-life at 1 μM was 1.21 h.
The like results for `[2H]C1([2H])C[C@H](O)C([2H])([2H])N1C(=O)Nc1cnn2ccc(N3CCC[C@@H]3c3cc(F)ccc3F)nc12` [Compound L-1, (S)—N-(5-((R)-2-(2,5-difluorophenyl)pyrrolidin-1-yl)-pyrazolo[1,5-a]pyrimidine-3-yl)-3-hydroxypyrrolidine-2,2,5,5-d4-1-carboxamide] were, in that order, 19.2 µL/min/mg, 1.2 h, 18.2 µL/min/mg and 1.27 h.
In the case of `[2H]C1([2H])C[C@H](c2cc(F)ccc2F)N(c2ccn3ncc(NC(=O)N4CC[C@H](O)C4)c3n2)C1` [Compound L-4, (S)—N-(5-((R)-2-(2,5-difluorophenyl)pyrrolidin-1-yl-4,4-d2)pyrazolo[1,5-a]pyrimidin-3-yl)-3-hydroxypyrrolidine-1-carboxamide], in series [2], the microsomal CLint at 1 μM stood at 21 µL/min/mg and the half-life at 1 μM came to 1.1 h.
With `[2H]C1([2H])CC([2H])([2H])[C@@]([2H])(c2cc(F)ccc2F)N1c1ccn2ncc(NC(=O)N3CC[C@H](O)C3)c2n1` [Compound L-7, (S)—N-(5-((R)-2-(2,5-difluorophenyl)pyrrolidin-1-yl-2,3,3,5,5-d2)pyrazolo[1,5-a]pyrimidin-3-yl)-3-hydroxypyrrolidine-1-carboxamide], the microsomal CLint at 1 μM in series [1] came out at 15.8 µL/min/mg; in series [2] it was 20.6 µL/min/mg. For the same compound, the half-life at 1 μM in series [1] was determined as 1.46 h; in series [2], 1.12 h.
For `O=C(Nc1cnn2ccc(N3CCC[C@@H]3c3cc(F)ccc3F)nc12)N1CC[C@H](O)C1` [LOXO-101, (S)—N-(5-((R)-2-(2,5-difluorophenyl)-pyrrolidin-1-yl)pyrazolo[1,5-a]pyrimidin-3-yl)-3-hydroxypyrrolidine-1-carboxamide, reference compound], in series [1], the microsomal CLint at 1 μM is 31.7 µL/min/mg and the half-life at 1 μM was found to be 1.06 h. Besides, in series [2], the microsomal CLint at 1 μM was found to be 21.3 µL/min/mg and the half-life at 1 μM amounted to 1.08 h.
